Experimental data: patent publication US20020137929A1, “1 - (3-heterocyclylphenyl) isothiourea, -isourea, -guanidine and -amidine herbicidal agents” (Intellectual Property Department, BASF Aktiengesellschaft, priority 1998, published 2002)

How the values were obtained:
[1] = system: ORYSAT (Rice, Tebonnet); test: Postemergence herbicidal evaluation; assay type: in vivo, Oryza sativa, (L.) Tebonnet
How it was run: (§1)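 Visual 0–9 rating versus control (stand, vigor, malformation, size, chlorosis, overall appearance), taken four to five weeks post-spray. Two-week-old seedlings received roughly 0.0156–0.500 kg/ha active in acetone/water (50/50) with 0.5% TWEEN 20 via nozzle at 40 psi.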

[2] = system: ECHCG (Barnyardgrass); test: Preemergence herbicidal evaluation; assay type: in vivo, Echinochloa crus-galli; settings: rated 4-5 weeks after treatment
How it was run: (§2)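 Preemergence soil application of compound, sprayed in aqueous acetone at rates equivalent to about 0.0156 to 0.500 kg per hectare onto freshly sown cups. Plant response was judged by eye on a 0-9 scale four to five weeks later.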

[3] = system: SETVI (Foxtail, Green); test: Preemergence herbicidal evaluation; assay type: in vivo, Setaria viridis; settings: rated 4-5 weeks after treatment
How it was run: as §2

[4] = system: SAGPY (Arrowhead (Pygmaea)); test: Postemergence weed control under flooded paddy conditions; assay type: in vivo, Sagittaria pygmaea; settings: postemergence weeds, rated 3 to 4 weeks after treatment
How it was run: (§3)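 With weeds 3 to 5 cm tall and rice at the 1.5 to 2.5 leaf stage, containers were flooded and water held 1.5 to 3 cm above soil. Compounds in 50/50 v/v aqueous/acetone went into the flood water at about 0.0313 to 0.500 kg/ha a.i. Effects were visually rated 0–9 against controls after three to four weeks in the greenhouse.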

[5] = system: SETVI (Foxtail, Green); test: Postemergence herbicidal evaluation; assay type: in vivo, Setaria viridis
How it was run: as §1

[6] = system: CYPIR (Rice Flatsedge); test: Preemergence weed control under flooded paddy conditions; assay type: in vivo, Cyperus iria; settings: rated 3-4 weeks after treatment
How it was run: (§4)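 Flooded-pot preemergence screen with silt loam and seeds in the upper 0.5 cm. Dose about 0.0313 to 0.500 kg/ha, delivered into flood water; visual 0-9 score after 3 to 4 weeks.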

[7] = system: CYPSE (Flatsedge); test: Postemergence weed control under flooded paddy conditions; assay type: in vivo, Cyperus serotinus; settings: postemergence weeds, rated 3 to 4 weeks after treatment
How it was run: as §3

[8] = system: ECHORC (Watergrass (Calif.)); test: as above; assay type: in vivo, Echinochloa oryzoides; settings: postemergence weeds, rated 3 to 4 weeks after treatment
How it was run: as §3

[9] = system: CYPIR (Rice Flatsedge); test: as above; assay type: in vivo, Cyperus iria; settings: postemergence weeds, rated 3 to 4 weeks after treatment
How it was run: as §3

[10] = system: ZEAMX (Corn, Field); test: Postemergence herbicidal evaluation; assay type: in vivo, Zea mays
How it was run: as §1

[11] = system: ECHORC (Watergrass (Calif.)); test: Preemergence weed control under flooded paddy conditions; assay type: in vivo, Echinochloa oryzoides; settings: rated 3-4 weeks after treatment
How it was run: as §4

[12] = system: ZEAMX (Corn, Field); test: Preemergence herbicidal evaluation; assay type: in vivo, Zea mays; settings: rated 4-5 weeks after treatment
How it was run: as §2

[13] = system: CYPSE (Flatsedge); test: Preemergence weed control under flooded paddy conditions; assay type: in vivo, Cyperus serotinus; settings: rated 3-4 weeks after treatment
How it was run: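 Silt loam, seeds in top 0.5 cm; flood held 1.5-3 cm; test cpd as acetone/water 50/50 into flood water, ~0.0313-0.500 kg/ha a.i.; greenhouse 3-4 wk; visual 0-9 score vs control.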

[14] = system: TRZAWR (Wheat, Winter, cv Riband); test: Preemergence herbicidal evaluation; assay type: in vivo, Triticum aestivum; settings: rated 4-5 weeks after treatment
How it was run: as §2

CN1C(=O)C(CC(=O)O)SC1=Nc1cc(-n2c(=O)cc(C(F)(F)F)n(C)c2=O)c(F)cc1Cl (stereo not drawn) [Compound 63, 2-{{2-Chloro-5-[3,6-dihydro-3-methyl-2,6-dioxo-4-(trifluoromethyl)-1(2H)-pyrimidinyl]-4-fluoro-phenyl}imino}-3-methyl-4-oxo-5-thiazolidineacetic acid]
Postemergence herbicidal rating ORYSAT ([1]; Rate 0.0158 kg/ha): 5.0 | Postemergence herbicidal rating ORYSAT ([1]; Rate 0.0315 kg/ha): 5.0 | Postemergence herbicidal rating ORYSAT ([1]; Rate 0.0630 kg/ha): 6.0 | Preemergence herbicidal rating ECHCG ([2]; rate 0.0156 kg/ha): 0.0 | Preemergence herbicidal rating ECHCG ([2]; rate 0.0313 kg/ha): 0.0 | Preemergence herbicidal rating ECHCG ([2]; rate 0.0625 kg/ha): 1.0 | Preemergence herbicidal rating ECHCG ([2]; rate 0.1250 kg/ha): 4.0 | Preemergence herbicidal rating ECHCG ([2]; rate 0.2500 kg/ha): 9.0 | Preemergence herbicidal rating SETVI ([3]; rate 0.0156 kg/ha): 0.0 | Preemergence herbicidal rating SETVI ([3]; rate 0.0313 kg/ha): 0.0 | Preemergence herbicidal rating SETVI ([3]; rate 0.0625 kg/ha): 1.0 | Preemergence herbicidal rating SETVI ([3]; rate 0.1250 kg/ha): 9.0 | Preemergence herbicidal rating SETVI ([3]; rate 0.2500 kg/ha): 9.0 | Herbicidal rating SAGPY ([4]; Rate 0.0313 kg/ha): 4.0 | Herbicidal rating SAGPY ([4]; Rate 0.0625 kg/ha): 7.0 | Herbicidal rating SAGPY ([4]; Rate 0.1250 kg/ha): 9.0 | Herbicidal rating SAGPY ([4]; Rate 0.2500 kg/ha): 9.0 | Postemergence herbicidal rating SETVI ([5]; Rate 0.0158 kg/ha): 9.0 | Postemergence herbicidal rating SETVI ([5]; Rate 0.0315 kg/ha): 9.0 | Postemergence herbicidal rating SETVI ([5]; Rate 0.0630 kg/ha): 9.0 | CYPIR herbicidal effect rating ([6]; 0.0313 kg/ha): 2.0 | CYPIR herbicidal effect rating ([6]; 0.0625 kg/ha): 6.0 | CYPIR herbicidal effect rating ([6]; 0.1250 kg/ha): 7.0 | CYPIR herbicidal effect rating ([6]; 0.2500 kg/ha): 7.0 | Herbicidal rating CYPSE ([7]; Rate 0.0313 kg/ha): 0.0 | Herbicidal rating CYPSE ([7]; Rate 0.0625 kg/ha): 0.0 | Herbicidal rating CYPSE ([7]; Rate 0.1250 kg/ha): 0.0 | Herbicidal rating CYPSE ([7]; Rate 0.2500 kg/ha): 0.0 | Herbicidal rating ECHORC ([8]; Rate 0.0313 kg/ha): 0.0 | Herbicidal rating ECHORC ([8]; Rate 0.0625 kg/ha): 0.0 | Herbicidal rating ECHORC ([8]; Rate 0.1250 kg/ha): 5.0 | Herbicidal rating ECHORC ([8]; Rate 0.2500 kg/ha): 5.0 | Herbicidal rating CYPIR ([9]; Rate 0.0313 kg/ha): 2.0 | Herbicidal rating CYPIR ([9]; Rate 0.0625 kg/ha): 6.0 | Herbicidal rating CYPIR ([9]; Rate 0.1250 kg/ha): 7.0 | Herbicidal rating CYPIR ([9]; Rate 0.2500 kg/ha): 7.0 | Postemergence herbicidal rating ZEAMX ([10]; Rate 0.0158 kg/ha): 7.0 | Postemergence herbicidal rating ZEAMX ([10]; Rate 0.0315 kg/ha): 7.5 | Postemergence herbicidal rating ZEAMX ([10]; Rate 0.0630 kg/ha): 7.5 | ECHORC herbicidal effect rating ([11]; 0.0313 kg/ha): 0.0 | ECHORC herbicidal effect rating ([11]; 0.0625 kg/ha): 0.0 | ECHORC herbicidal effect rating ([11]; 0.1250 kg/ha): 5.0 | ECHORC herbicidal effect rating ([11]; 0.2500 kg/ha): 5.0 | Preemergence herbicidal rating ZEAMX ([12]; rate 0.0156 kg/ha): 0.0 | Preemergence herbicidal rating ZEAMX ([12]; rate 0.0313 kg/ha): 1.0 | Preemergence herbicidal rating ZEAMX ([12]; rate 0.0625 kg/ha): 2.0 | Preemergence herbicidal rating ZEAMX ([12]; rate 0.1250 kg/ha): 6.0 | Preemergence herbicidal rating ZEAMX ([12]; rate 0.2500 kg/ha): 7.0 | CYPSE herbicidal effect rating ([13]; 0.0313 kg/ha): 0.0 | CYPSE herbicidal effect rating ([13]; 0.0625 kg/ha): 0.0 | CYPSE herbicidal effect rating ([13]; 0.1250 kg/ha): 0.0 | CYPSE herbicidal effect rating ([13]; 0.2500 kg/ha): 0.0 | Preemergence herbicidal rating TRZAWR ([14]; rate 0.0156 kg/ha): 0.0 | Preemergence herbicidal rating TRZAWR ([14]; rate 0.0313 kg/ha): 0.0 | Preemergence herbicidal rating TRZAWR ([14]; rate 0.0625 kg/ha): 1.0 | Preemergence herbicidal rating TRZAWR ([14]; rate 0.1250 kg/ha): 6.0 | Preemergence herbicidal rating TRZAWR ([14]; rate 0.2500 kg/ha): 7.0
